The source made the active and inactive calls.
Columns and labels:
[1] = molecular target: T1, DNA repair protein RAD52 homolog (Homo sapiens, UniProt P43351); format: functional, biochemical
T1 sequence (P43351 whole entry): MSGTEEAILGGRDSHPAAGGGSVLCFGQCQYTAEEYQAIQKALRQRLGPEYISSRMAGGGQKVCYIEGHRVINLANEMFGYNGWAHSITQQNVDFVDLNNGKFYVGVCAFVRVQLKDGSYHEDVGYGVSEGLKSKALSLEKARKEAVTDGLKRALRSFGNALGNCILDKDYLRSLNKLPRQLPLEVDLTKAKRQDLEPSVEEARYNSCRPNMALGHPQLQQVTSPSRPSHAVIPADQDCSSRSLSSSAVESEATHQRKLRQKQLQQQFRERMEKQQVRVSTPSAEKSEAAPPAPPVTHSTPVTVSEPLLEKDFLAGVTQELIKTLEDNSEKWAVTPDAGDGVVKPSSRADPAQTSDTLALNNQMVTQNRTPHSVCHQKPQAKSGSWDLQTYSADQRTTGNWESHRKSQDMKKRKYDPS

[2] = molecular target: T2, Type-1 angiotensin II receptor (Homo sapiens, UniProt P30556); test: AT1 receptor agonists, dose response, selectivity assay for APJ receptor agonist project, cell-based, uHTS hits (AID 488865); format: functional;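 note: beta-arrestin recruitment to AT1 measured by enzyme fragment complementation luminescence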
T2 sequence (P30556 whole entry): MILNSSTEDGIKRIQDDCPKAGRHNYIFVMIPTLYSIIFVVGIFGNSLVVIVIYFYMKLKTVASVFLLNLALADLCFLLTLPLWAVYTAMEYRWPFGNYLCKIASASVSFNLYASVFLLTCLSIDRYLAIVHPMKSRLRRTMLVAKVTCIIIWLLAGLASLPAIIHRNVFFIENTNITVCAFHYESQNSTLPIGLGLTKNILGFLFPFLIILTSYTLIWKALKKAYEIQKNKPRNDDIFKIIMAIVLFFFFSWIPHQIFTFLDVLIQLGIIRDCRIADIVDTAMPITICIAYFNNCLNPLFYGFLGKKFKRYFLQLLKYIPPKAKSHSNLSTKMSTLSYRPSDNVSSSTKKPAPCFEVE

[3] = molecular target: T3, Ubiquitin-conjugating enzyme E2 N (Homo sapiens, UniProt P61088); format: functional
T3 sequence (P61088 whole entry): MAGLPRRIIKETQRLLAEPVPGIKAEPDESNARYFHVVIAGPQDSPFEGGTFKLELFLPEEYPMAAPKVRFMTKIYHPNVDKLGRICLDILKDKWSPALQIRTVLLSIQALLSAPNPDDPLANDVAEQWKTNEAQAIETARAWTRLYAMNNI

[4] = molecular target: T3, Ubiquitin-conjugating enzyme E2 N; format: functional; remark: listed apart in the source
Bcl-2-related protein A1 = molecular target: T4, Bcl-2-related protein A1 (Mus musculus, UniProt Q07440); format: functional;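 note: confirmatory dose–response counterscreen on Bfl-1, used to check hits from a UBC13 polyubiquitin inhibitor campaign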
T4 sequence (Q07440 whole entry): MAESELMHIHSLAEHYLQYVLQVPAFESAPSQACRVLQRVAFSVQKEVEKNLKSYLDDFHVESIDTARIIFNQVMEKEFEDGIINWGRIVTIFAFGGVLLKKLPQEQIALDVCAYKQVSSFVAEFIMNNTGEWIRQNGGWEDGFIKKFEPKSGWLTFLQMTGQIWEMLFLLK

[5] = molecular target: Tyrosine-protein phosphatase non-receptor type 11 (Homo sapiens, UniProt Q06124); test: SHP2 phosphatase inhibition, dose response, selectivity assay for STEP inhibitor project, biochemical (AID 602367); format: functional; conditions: read-out: IC50_Mean
[6] = molecular target: Tyrosine-protein phosphatase non-receptor type 5 (Homo sapiens, UniProt P54829); test: STEP phosphatase inhibitors, confirmation, biochemical, fluorescence intensity, uHTS hits (AID 602372); format: functional; conditions: read-out: IC50_Mean
Sequence of Tyrosine-protein phosphatase non-receptor type 5 (P54829 whole entry): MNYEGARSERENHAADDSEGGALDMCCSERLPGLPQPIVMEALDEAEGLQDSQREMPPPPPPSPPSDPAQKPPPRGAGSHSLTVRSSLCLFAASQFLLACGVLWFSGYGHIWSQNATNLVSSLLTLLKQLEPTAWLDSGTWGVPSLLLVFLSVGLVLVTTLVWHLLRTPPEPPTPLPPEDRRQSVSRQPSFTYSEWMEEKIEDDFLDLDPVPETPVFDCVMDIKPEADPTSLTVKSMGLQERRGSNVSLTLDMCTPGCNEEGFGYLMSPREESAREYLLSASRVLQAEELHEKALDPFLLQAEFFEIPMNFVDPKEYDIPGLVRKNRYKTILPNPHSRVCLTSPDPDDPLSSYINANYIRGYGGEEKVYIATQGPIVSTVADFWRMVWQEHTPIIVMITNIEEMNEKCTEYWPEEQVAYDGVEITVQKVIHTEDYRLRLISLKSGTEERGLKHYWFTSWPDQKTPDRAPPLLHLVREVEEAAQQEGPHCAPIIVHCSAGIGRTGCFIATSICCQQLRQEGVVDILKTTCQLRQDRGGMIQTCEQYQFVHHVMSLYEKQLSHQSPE

[7] = molecular target: T5, Tyrosine-protein phosphatase non-receptor type 7 (Homo sapiens, UniProt P35236); test: SAR analysis of chemical inhibitors of HePTP using a Fluorescent assay - Set 2. [Related pubchem assays (depositor defined):AID1059, AID1077, AID1661, AID2085, AID521]; format: functional
T5 sequence (P35236 whole entry): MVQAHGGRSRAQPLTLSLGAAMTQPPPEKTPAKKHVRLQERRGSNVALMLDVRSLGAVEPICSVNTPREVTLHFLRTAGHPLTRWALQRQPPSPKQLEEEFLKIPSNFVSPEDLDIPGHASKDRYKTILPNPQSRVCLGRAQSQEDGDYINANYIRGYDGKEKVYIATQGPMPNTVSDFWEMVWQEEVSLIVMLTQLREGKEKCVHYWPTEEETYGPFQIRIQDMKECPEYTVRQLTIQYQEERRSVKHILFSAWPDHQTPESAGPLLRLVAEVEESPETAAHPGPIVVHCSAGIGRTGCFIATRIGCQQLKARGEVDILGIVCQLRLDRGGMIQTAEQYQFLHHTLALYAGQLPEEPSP

[8] = molecular target: T6, Dual specificity protein phosphatase 3 (Homo sapiens, UniProt P51452); test: VHR phosphatase inhibition, dose response, selectivity assay for STEP inhibitor project, biochemical (AID 602374); format: functional; conditions: read-out: IC50_Mean
T6 sequence (P51452 whole entry): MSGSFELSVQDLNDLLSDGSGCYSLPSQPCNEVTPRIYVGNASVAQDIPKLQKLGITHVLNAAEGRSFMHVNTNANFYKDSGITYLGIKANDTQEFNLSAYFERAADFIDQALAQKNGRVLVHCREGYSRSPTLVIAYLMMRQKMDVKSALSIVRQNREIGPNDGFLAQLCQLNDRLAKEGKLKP

[9] = molecular target: T6, Dual specificity protein phosphatase 3; test: SAR VHR1 Fluorescent Assay for In Vitro dose response studies Set 2. [Related pubchem assays (depositor defined):AID1654, AID1661, AID1878]; format: functional

Row | AC50 [1] | EC50 [2] | IC50 [3] | IC50 [4] | IC50 (Bcl-2-related protein A1) | SMILES | IC50 [5] | IC50 [6] | IC50 [7] | IC50 [8] | IC50 [9]
1 | 21.2 µM (active) | > 100 µM (inactive) | 8.33 µM (active) | 7.45 µM (active) | > 20 µM (inactive) | CCOc1cccc2sc(N(CCCN(C)C)C(=O)c3ccc(S(=O)(=O)N4CCc5ccccc5C4)cc3)nc12 | – | – | – | – | –
2 | – | – | – | – | – | CN1CCN(C(S)=Nc2ccc(S(N)(=O)=O)cc2)CC1 | 6.54 µM (active) | 27.8 µM (inactive) | 27.4 µM (active) | 1.32 µM (active) | 15.4 µM (active)
3 | – | – | – | – | – | NS(=O)(=O)c1ccc(NC(=S)N2CCN(c3ccccc3)CC2)cc1 | – | – | 72.8 µM (active) | – | 67.2 µM (active)
